Source: US20050113413A1, “Naphthalene-1,5-disulfonic acid salts of a substituted 4-amino-1-(pyridylmethyl)piperidine compound” (priority 2003, published 2005)
pKi: −log10 of the molar value.

Molecular target: T1, hM2 muscarinic receptor subtype (Homo sapiens, UniProt P08172)
T1 construct: expressed in transfected cells; membranes prepared
T1 sequence (P08172 1-466): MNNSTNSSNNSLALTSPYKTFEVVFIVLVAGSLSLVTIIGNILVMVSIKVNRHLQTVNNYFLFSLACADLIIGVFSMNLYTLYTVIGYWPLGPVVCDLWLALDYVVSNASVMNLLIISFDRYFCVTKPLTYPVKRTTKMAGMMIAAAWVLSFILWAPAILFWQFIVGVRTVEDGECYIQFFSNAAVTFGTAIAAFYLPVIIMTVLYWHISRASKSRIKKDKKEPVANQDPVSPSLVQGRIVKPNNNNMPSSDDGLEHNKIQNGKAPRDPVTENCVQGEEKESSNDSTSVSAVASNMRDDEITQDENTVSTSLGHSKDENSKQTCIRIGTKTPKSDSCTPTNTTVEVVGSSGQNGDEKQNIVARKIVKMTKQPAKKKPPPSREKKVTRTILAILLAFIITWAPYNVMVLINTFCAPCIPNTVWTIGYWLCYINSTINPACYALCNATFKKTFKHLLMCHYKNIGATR
Assay: Radioligand binding assay ([3H]NMS displacement), hM2
Conditions: [3H]NMS at 1 nM, CHO cell membranes, 60 minutes at 37° C.
Experimental: CHO (Chinese hamster ovary) cell lines stabilely expressing cloned human hM1, hM2, hM3 and hM4 muscarinic receptor subtypes, respectively, were grown to near confluency in medium consisting of HAM's F-12 supplemented with 10% FBS (Fetal Bovine Serum) and 250 μg/mL Geneticin. The cells were grown in a 5% CO2, 37° C. incubator and lifted with dPBS+2 mM EDTA. Cells were collected by 5 minute centrifugation at 650×g, and cell pellets were either stored frozen at −80° C. or membranes were prepared immediately. For membrane preparation, cell pellets were resuspended in lysis buffer and homogenized with a Polytron PT-2100 tissue disrupter (Kinematica AG; 20 seconds×2 bursts). Crude membranes were centrifuged at 40,000×g for 15 minutes at 4° C. […] Protein concentration of the membrane suspension was determined by the method of Lowry, O. et al., (1951) Journal of Biochemistry: 193, 265. […]
Radioligand binding assays were performed in 96-well microtiter plates in a total assay volume of 100 μL. […] Filter plates were rinsed three times with wash buffer (10 mM HEPES) to remove unbound radioactivity. […] The plates were then counted in a PerkinElmer Topcount liquid scintillation counter (PerkinElmer Inc., Wellesley, Mass.). Binding data were analyzed by nonlinear regression analysis with the GraphPad Prism Software package (GraphPad Software, Inc., San Diego, Calif.) using the one-site competition model. […]

## COc1ccncc1CN1CCC(N(CCCCCCCN2CC[C@@H](C(C(N)=O)(c3ccccc3)c3ccccc3)C2)C(C)C)CC1 [Example 6]
  pKi: > 9.00
